Values of other authors, collected in US10596120B2, “Pharmaceutical compositions” (Boehringer Ingelheim International GmbH, priority 2011, dated 2020).

Details: metformin on its own, in the diabetic

In the case of `CN(C)C(=N)N=C(N)N` [metformin], the “average improvement in the HbA1c value” is listed as 1.0-1.5%.
